# According to the supplement of paper PMC4862054:
# Legend:
# Settings in all cases: incubation time: 72 h
# DU-4475 [1] = assay: normalised response (% of control), CellTiter-Glo; higher = more viable cells (100 = DMSO, 0 = benzethonium chloride kill control)
# Method: (§1)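 DSRT, 72 h incubation, CellTox Green / CellTiter-Glo readout. Signal is normalised to DMSO and benzethonium chloride controls. Value is the normalised response at dose 3.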
# HCC1599 [2] = assay: as above
# Method: as §1
# MFM-223 [3] = assay: as above
# Method: as §1
# CAL-85-1 [4] = assay: as above
# Method: as §1
# MDA-MB-231 [5] = assay: as above
# Method: as §1
# SK-BR-3 [6] = assay: as above
# Method: as §1
# MDA-MB-436 [7] = assay: as above
# Method: as §1
# MDA-MB-468 [8] = assay: as above
# Method: as §1
# CAL-148 [9] = assay: as above
# Method: as §1
# MDA-MB-453 [10] = assay: as above
# Method: as §1
# HCC1143 [11] = assay: as above
# Method: as §1
# MCF-10A [12] = assay: as above
# Method: as §1
# CAL-120 [13] = assay: as above
# Method: as §1
# BT-474 [14] = assay: as above
# Method: as §1
# HDQ-P1 [15] = assay: as above
# Method: as §1
# CAL-51 [16] = assay: as above
# Method: as §1
# HCC1937 [17] = assay: as above
# Method: as §1
# BT-549 [18] = assay: as above
# Method: as §1
# DU-4475 [19] = assay: normalised response (% of control), CellTox Green; higher = less cell death (100 = DMSO, 0 = benzethonium chloride kill control)
# Summary of the method: (§2)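 Values are normalised signals, each belonging to one concentration of the series. Breast cancer cells (20 µl suspension) were seeded into 384-well plates with compound at 5 concentrations in 10-fold steps over a compound-specific 10,000-fold range and incubated 72 h. Readouts were CellTox Green fluorescence (485/520 nm), then CellTiter-Glo luminescence after 10 min at room temperature, with each plate set to 0.1 % DMSO as 100 and a positive kill control as 0.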
# Hs578T [20] = assay: as above
# Summary of the method: as §2
# HCC1599 [21] = assay: as above
# Summary of the method: as §2
# MFM-223 [22] = assay: as above
# Summary of the method: as §2
# CAL-85-1 [23] = assay: as above
# Summary of the method: as §2
# MDA-MB-231 [24] = assay: as above
# Summary of the method: as §2
# MDA-MB-436 [25] = assay: as above
# Summary of the method: as §2
# MDA-MB-468 [26] = assay: as above
# Summary of the method: as §2
# CAL-148 [27] = assay: as above
# Summary of the method: as §2
# MDA-MB-453 [28] = assay: as above
# Summary of the method: as §2
# HCC1143 [29] = assay: as above
# Summary of the method: as §2
# MCF-10A [30] = assay: as above
# Summary of the method: as §2
# CAL-120 [31] = assay: as above
# Summary of the method: as §2
# BT-474 [32] = assay: as above
# Summary of the method: as §2
# HDQ-P1 [33] = assay: as above
# Summary of the method: as §2
# CAL-51 [34] = assay: as above
# Summary of the method: as §2
# HCC1937 [35] = assay: as above
# Summary of the method: as §2
# BT-549 [36] = assay: as above
# Summary of the method: as §2
# DU-4475 [37] = assay: normalised response (% of control), CellTiter-Glo; higher = more viable cells (100 = DMSO, 0 = benzethonium chloride kill control); remark: listed apart in the source
# Summary of the method: as §2
# Hs578T [38] = assay: as above
# Summary of the method: as §2
# HCC1599 [39] = assay: as above; remark: listed apart in the source
# Summary of the method: as §2
# MFM-223 [40] = assay: as above; remark: listed apart in the source
# Summary of the method: as §2
# CAL-85-1 [41] = assay: as above; remark: listed apart in the source
# Summary of the method: as §2
# MDA-MB-231 [42] = assay: as above; remark: listed apart in the source
# Summary of the method: as §2
# SK-BR-3 [43] = assay: as above; remark: listed apart in the source
# Summary of the method: as §2
# MDA-MB-436 [44] = assay: as above; remark: listed apart in the source
# Summary of the method: as §2
# MDA-MB-468 [45] = assay: as above; remark: listed apart in the source
# Summary of the method: as §2
# CAL-148 [46] = assay: as above; remark: listed apart in the source
# Summary of the method: as §2
# MDA-MB-453 [47] = assay: as above; remark: listed apart in the source
# Summary of the method: as §2
# HCC1143 [48] = assay: as above; remark: listed apart in the source
# Summary of the method: as §2
# MCF-10A [49] = assay: as above; remark: listed apart in the source
# Summary of the method: as §2
# CAL-120 [50] = assay: as above; remark: listed apart in the source
# Summary of the method: as §2
# BT-474 [51] = assay: as above; remark: listed apart in the source
# Summary of the method: as §2
# HDQ-P1 [52] = assay: as above; remark: listed apart in the source
# Summary of the method: as §2
# CAL-51 [53] = assay: as above; remark: listed apart in the source
# Summary of the method: as §2
# HCC1937 [54] = assay: as above; remark: listed apart in the source
# Summary of the method: as §2
# BT-549 [55] = assay: as above; remark: listed apart in the source
# Summary of the method: as §2
smiles,measurement,setting,value
Cn1c(=O)n(-c2ccc(C(C)(C)C#N)cc2)c2c3cc(-c4cnc5ccccc5c4)ccc3ncc21 [Dactolisib] (10 nM),normalised response,DU-4475 [1],96.3%
same,normalised response,HCC1599 [2],97.5%
same,normalised response,MFM-223 [3],83.8%
same,normalised response,CAL-85-1 [4],62.9%
same,normalised response,MDA-MB-231 [5],80.3%
same,normalised response,SK-BR-3 [6],73.6%
same,normalised response,MDA-MB-436 [7],65.9%
same,normalised response,MDA-MB-468 [8],84.3%
same,normalised response,CAL-148 [9],88.5%
same,normalised response,MDA-MB-453 [10],75.9%
same,normalised response,HCC1143 [11],78%
same,normalised response,MCF-10A [12],99.8%
same,normalised response,CAL-120 [13],62.1%
same,normalised response,BT-474 [14],80.5%
same,normalised response,HDQ-P1 [15],80.1%
same,normalised response,CAL-51 [16],68.4%
same,normalised response,HCC1937 [17],85.5%
same,normalised response,BT-549 [18],61.5%
same,normalised response,DU-4475 [19],104%
same,normalised response,Hs578T [20],116%
same,normalised response,HCC1599 [21],115%
same,normalised response,MFM-223 [22],104%
same,normalised response,CAL-85-1 [23],101%
same,normalised response,MDA-MB-231 [24],120%
same,normalised response,MDA-MB-436 [25],102%
same,normalised response,MDA-MB-468 [26],130%
same,normalised response,CAL-148 [27],103%
same,normalised response,MDA-MB-453 [28],108%
same,normalised response,HCC1143 [29],55.5%
same,normalised response,MCF-10A [30],108%
same,normalised response,CAL-120 [31],98.7%
same,normalised response,BT-474 [32],101%
same,normalised response,HDQ-P1 [33],116%
same,normalised response,CAL-51 [34],113%
same,normalised response,HCC1937 [35],122%
same,normalised response,BT-549 [36],110%
Cn1cncc1[C@@](N)(c1ccc(Cl)cc1)c1ccc2c(c1)c(-c1cccc(Cl)c1)cc(=O)n2C [Tipifarnib] (1000 nM),normalised response,DU-4475 [37],66.4%
same,normalised response,Hs578T [38],80.6%
same,normalised response,HCC1599 [39],111%
same,normalised response,MFM-223 [40],73.8%
same,normalised response,CAL-85-1 [41],110%
same,normalised response,MDA-MB-231 [42],90.6%
same,normalised response,SK-BR-3 [43],59.4%
same,normalised response,MDA-MB-436 [44],65.1%
same,normalised response,MDA-MB-468 [45],74.9%
same,normalised response,CAL-148 [46],66.8%
same,normalised response,MDA-MB-453 [47],73.8%
same,normalised response,HCC1143 [48],80.5%
same,normalised response,MCF-10A [49],86.9%
same,normalised response,CAL-120 [50],79.4%
same,normalised response,BT-474 [51],80.5%
same,normalised response,HDQ-P1 [52],76.4%
same,normalised response,CAL-51 [53],52.2%
same,normalised response,HCC1937 [54],74.5%
same,normalised response,BT-549 [55],75.1%
same,normalised response,DU-4475 [19],95.6%
same,normalised response,Hs578T [20],108%
same,normalised response,HCC1599 [21],90.8%
same,normalised response,MFM-223 [22],101%
same,normalised response,CAL-85-1 [23],98.8%
same,normalised response,MDA-MB-231 [24],103%
same,normalised response,MDA-MB-436 [25],94.4%
same,normalised response,MDA-MB-468 [26],105%
same,normalised response,CAL-148 [27],96%
same,normalised response,MDA-MB-453 [28],107%
same,normalised response,HCC1143 [29],110%
same,normalised response,MCF-10A [30],73.9%
same,normalised response,CAL-120 [31],97.4%
same,normalised response,BT-474 [32],100%
same,normalised response,HDQ-P1 [33],102%
same,normalised response,CAL-51 [34],57.2%
same,normalised response,HCC1937 [35],45.6%
same,normalised response,BT-549 [36],136%
